According to US9193687B2 (priority 2007, dated 2015):
Several values for one entry are separate records, joined by “and”; a condition that tells them apart may be missing. Equal values may be shown once. Where a name gives a salt, the structure may show the parent alone. Read-outs that look alike come from different tables or passages of the source.

Assays:
[1] = system: CCRF-CEM human lymphoblastic leukemia cells; assay: cells; settings: read-out: Cytotoxicity IC50, CCRF-CEM
prostate cancer (PC3) = assay: cells; settings: Homo sapiens, read-out: Cytotoxicity IC50, PC3
lung cancer H1299 = assay: cells; settings: Homo sapiens, NCI-H1299, read-out: Cytotoxicity IC50, H1299
[2] = system: Human colon carcinoma HCT-116 cells; assay: cells
lung cancer H460 = assay: cells; settings: Homo sapiens, NCI-H460, read-out: Cytotoxicity IC50, H460
[3] = system: Human mammary carcinoma (MX-1) tumor cells; assay: In vitro cytotoxicity, SRB assay, 72-hr incubation; settings: Homo sapiens, 72 h, read-out: Cytotoxicity IC50, MX-1
CCRF-CEM/Taxol = assay: In vitro cytotoxicity, XTT assay, taxol-resistant subline; settings: Homo sapiens, CCRF-CEM, 72 h, read-out: Cytotoxicity IC50, CCRF-CEM/Taxol
[4] = system: human mammary carcinoma MX-1 xenograft; assay: Antitumor therapeutic effect against MX-1 xenograft in nude mice; type: in vivo; settings: i.v. injection; for Therapeutic effect: complete tumor remission (CR), mice with CR/total and day: treatment from Day 8, dose and schedule per compound as in Table 3 (30-150 mg/kg); for Maximal body-weight loss (%): dose and schedule per compound as in Table 3
Description: Athymic nude mice bearing the nu/nu gene were obtained from NCI, Frederick, Md. and used for all human tumor xenografts. Male nude mice 6 weeks or older weighing 20-24 g or more were used. Compounds were administered via the tail vein for i.v. injection or infusion as described previously.^64 A typical formulation for chemotherapeutic studies for each drug was dissolved in DSMO to make a 25 mg/ml fresh solution, 0.4 ml of this solution was mixed with 0.3 ml of Tween 80, plus 1.3 ml to make 2 ml of 5 mg/ml solution. Bolus injection volume was 0.1-0.2 ml per mouse. Tumor volume was assessed by measuring length×width×height (or width) by using a caliper. For tumor-bearing nude mice during the course of the experiment, the body weight refers to total weight minus the weight of the tumor. All animal studies were conducted in accordance with the guidelines for the National Institute of Health Guide for the Care and Use of Animals and the protocol approved by the Institutional Animal Care and Use Committee.
The therapeutic effects of a drug against human tumor xenografts in nude mice, under the optimal therapeutic conditions but without any lethality due to drug toxicity, the following degrees of therapeutic effects are defined and calculated by the following formula: […]
where • T0 is the initial tumor size (in mm^3) at beginning of drug treatment; • Tc is tumor size of untreated control group on a given date; and • Tx is tumor size of the drug treated group on a given date.
[formula] • Tumor disappearance (complete remission or CR) is defined by the effect where • [Tx=0] for a period of time (in days) for a proportion of animals (NCR/N), where • N is the total number of animals in the group, and NCR is the number of mice in the group that achieved CR. • Tumor relapse is quantitatively calculated by • [The Day tumor relapsed (Drelp)—The Day CR achieved (DCR)] (Eq. 3) for a proportion of animals (Nrelp/N) where N is the total number of animals in the group, and Nrelp is the number of the mice in the group that relapsed. • The log cell kill (LCK) of the tumor tissue after a given chemotherapy that reached CR is estimated by: LCK=log [2^(Tumor remission in days/Tumor doubling time in days)] (Eq. 4)
Athymic nude mice bearing the nu/nu gene were used for human breast tumor MX-1 xenograft (FIGS. 3 and 4) and human brain glioma U87 GM xenograft (FIG. 5). Nude mice were obtained from National Cancer Institute, Frederick, Md. Male mice 6 weeks old or older weighing 22 g or more were used for experiments with subcutaneous tumor inoculation as described previously.^67 Drug was administrated via the tail vein by iv injection. Tumor volumes were assessed by measuring length×width×height (or width) by using caliper. Vehicle used was 20 μL DMSO in 180 μL saline. All animal studies were conducted in accordance with the guidelines of the U.S. National Institutes of Health Guide for the Care and Use of Animals and the protocol approved by the Institutional Animal Care and Use Committee.

[5] = HCT-116, read-out: Cytotoxicity IC50, HCT-116
[6] = HCT-116, 72 h, read-out: Cytotoxicity IC50, HCT-116

SMILES	IC50 [1]	IC50 (prostate cancer (PC3))	IC50 (lung cancer H1299)	IC50 [2, 5]	IC50 (lung cancer H460)	IC50 [3]	IC50 ([1]; 72 h)	IC50 (CCRF-CEM/Taxol)	Therapeutic effect: complete tumor remission (CR), mice with CR/total and day [4]	Maximal body-weight loss (%) [4]	IC50 [2, 6]
O=C(CN1CCOCC1)Nc1ccc(NC(=O)Nc2ccc(N(CCCl)CCCl)cc2)cc1 [BO-2096]	1.13 µM	16 µM	18.6 µM	6.67 µM	4.74 µM						
O=C(CN1CCCC1)Nc1cccc(NC(=O)Nc2ccc(N(CCCl)CCCl)cc2)c1 [BO-2151, N-(3-(3-(4-(bis(2-chloroethyl)amino)phenyl)ureido)-phenyl)-2-(pyrrolidin-1-yl)acetamide]	3.41 µM	12.8 µM	9.36 µM	5.41 µM	6.55 µM						
O=C(CCN1CCCCC1)Nc1ccc(NC(=O)Nc2ccc(N(CCCl)CCCl)cc2)cc1 [BO-2057]		2.28 µM	3.03 µM		1.58 µM						
O=C(CN1CCCCC1)Nc1ccc(NC(=O)Nc2ccc(N(CCCl)CCCl)cc2)cc1 [BO-2092, N-(4-(3-(4-(bis(2-chloroethyl)amino)phenyl)ureido)-phenyl)-2-(piperidin-1-yl)-acetamide]	0.31 µM	2.24 µM	2.52 µM	1.5 µM	1.05 µM						
O=C(CN1CCCCC1)Nc1cccc(NC(=O)Nc2ccc(N(CCCl)CCCl)cc2)c1 [BO-2184]	1.35 µM	10.1 µM	8.55 µM	7.5 µM	5.62 µM						
CCN(CC)CCC(=O)Nc1cccc(NC(=O)Nc2ccc(N(CCCl)CCCl)cc2)c1 [BO-2120]	0.86 µM	13 µM	5.77 µM	3.21 µM	6.79 µM						
CN(C)CCC(=O)Nc1cccc(NC(=O)Nc2ccc(N(CCCl)CCCl)cc2)c1 [BO-2091, N-(3-(3-(4-(bis(2-chloroethyl)amino)-phenyl)ureido)phenyl)-3-(dimethylamino)-propanamide]	0.52 µM	13.5 µM	8.99 µM	3.28 µM	16.8 µM						
O=C(CN1CCC(N2CCCCC2)CC1)Nc1cccc(NC(=O)Nc2ccc(N(CCCl)CCCl)cc2)c1 [BO-2188]	30.4 µM	25.9 µM	12.8 µM	6.15 µM	12.3 µM						
O=C(CCN1CCOCC1)Nc1ccc(NC(=O)Nc2ccc(N(CCCl)CCCl)cc2)cc1 [BO-2074]	1.06 µM	9.74 µM	15.2 µM	7.02 µM	3.95 µM						
O=C(CCN1CCCC1)Nc1ccc(NC(=O)Nc2ccc(N(CCCl)CCCl)cc2)cc1 [BO-2075]	0.28 µM	3.48 µM	6.43 µM	1.48 µM	1.03 µM						
O=C(CCN1CCOCC1)Nc1cccc(NC(=O)Nc2ccc(N(CCCl)CCCl)cc2)c1 [BO-2148]	3.1 µM	35.5 µM	15.9 µM	16.8 µM	38.5 µM						
O=C(CCN1CCCCC1)Nc1cccc(NC(=O)Nc2ccc(N(CCCl)CCCl)cc2)c1 [BO-2147, N-(3-(3-(4-(Bis(2-chloroethyl)amino)phenyl)ureido)-phenyl)-3-(piperidin-1-yl)-propanamide]	0.39 µM	5.73 µM	4.63 µM	3.51 µM	7.88 µM						
O=C(CCN1CCC(N2CCCCC2)CC1)Nc1ccc(NC(=O)Nc2ccc(N(CCCl)CCCl)cc2)cc1 [BO-2118]	0.72 µM	30 µM	36 µM	11.1 µM	14.5 µM						
O=C(CCN1CCCC1)Nc1cccc(NC(=O)Nc2ccc(N(CCCl)CCCl)cc2)c1 [BO-2121]	0.67 µM	10.3 µM	4.33 µM	5.11 µM	9.84 µM						
CN(C)CC(=O)Nc1ccc(NC(=O)Nc2ccc(N(CCCl)CCCl)cc2)cc1 [BO-2095]	0.29 µM	7.33 µM	5.36 µM	2.54 µM	1.21 µM						
O=C(CN1CCC(N2CCCCC2)CC1)Nc1ccc(NC(=O)Nc2ccc(N(CCCl)CCCl)cc2)cc1 [BO-2117]	1.14 µM	7.24 µM	14.4 µM	4.24 µM	14.9 µM						
CCN(CC)CC(=O)Nc1ccc(NC(=O)Nc2ccc(N(CCCl)CCCl)cc2)cc1 [BO-2094, N-(4-(3-(4-(Bis(2-chloroethyl)amino)phenyl)ureido)-phenyl)-2-(diethylamino)-acetamide]		3.57 µM	3.43 µM	1.7 µM	0.93 µM						
CN(C)CC(=O)Nc1cccc(NC(=O)Nc2ccc(N(CCCl)CCCl)cc2)c1 [BO-2189, N-(3-(3-(4-(bis(2-chloroethyl)amino)phenyl)ureido)phenyl)-2-(dimethyl-amino)acetamide]	0.78 µM	19 µM	10.6 µM	9.56 µM	8.74 µM						
O=C(CN1CCCC1)Nc1ccc(NC(=O)Nc2ccc(N(CCCl)CCCl)cc2)cc1 [BO-2093]	0.26 µM	3.52 µM	3.41 µM		0.95 µM						
Cc1ccc(Nc2c3ccccc3nc3c(C)cccc23)cc1NC(=O)Oc1ccc(N(CCCl)CCCl)cc1 [BO-1064, [2-methyl-5-(4-methylacridin-9-ylamino)phenyl]-carbamic acid 4-[bis(2-chloroethyl)amino]phenyl ester]						0.29 µM	0.13 µM	0.17 µM	achieved complete tumor remission and 1/1 CR on D22	Died of	0.61 µM
CCN(CC)CCC(=O)Nc1ccc(NC(=O)Nc2ccc(N(CCCl)CCCl)cc2)cc1 [BO-2073, N-(4-(3-(4-(Bis(2-chloroethyl)amino)phenyl)ureido)-phenyl)-3-(diethylamino)-propanamide]	0.3 µM	2.47 µM	10.3 µM	2.09 µM	1.83 µM						
O=C(Nc1cc(CO)cc(Nc2c3ccccc3nc3ccccc23)c1)Oc1ccc(N(CCCl)CCCl)cc1 [BO-1062, [3-(acridin-9-ylamino)-5-hydroxymethylphenyl]carbamic acid 4-[bis(2-chloroethyl)amino]phenyl ester]						0.1 µM	0.08 µM	0.14 µM	achieved complete tumor remission and 1/1 CR on D22	17%	0.57 µM
O=C(CN1CCOCC1)Nc1cccc(NC(=O)Nc2ccc(N(CCCl)CCCl)cc2)c1 [BO-2182]	3.87 µM	35.8 µM	26.4 µM	13 µM	19.5 µM						
O=C(CCN1CCC(N2CCCCC2)CC1)Nc1cccc(NC(=O)Nc2ccc(N(CCCl)CCCl)cc2)c1 [BO-2191, 3-([1,4′-bipiperidin]-1′-yl)-N-(3-(3-(4-(bis(2-chloroethyl)amino)phenyl)ureido)phenyl)propanamide hydrochloride]	1.63 µM	22.1 µM	11 µM	15.7 µM	14.2 µM						
CCN(CC)CC(=O)Nc1cccc(NC(=O)Nc2ccc(N(CCCl)CCCl)cc2)c1 [BO-2183]	2.01 µM	13 µM	11.7 µM	4.62 µM	5.67 µM						
